Data: ChEMBL document CHEMBL5584294, “Adpressins A-G: Oligophenalenone Dimers from Talaromyces adpressus” (J Nat Prod, 2024)

What was measured:
B-cell line = test: Immunosuppressive activity in BALB/c mouse B-lymphocytes assessed as inhibition of LPS-induced cell proliferation pretreated with LPS for 24 hrs followed by compound addition and measured after 48 hrs by CCK-8 assay; type: functional, cell-based
T-cell [1] = test: Immunosuppressive activity in BALB/c mouse T-lymphocytes assessed as inhibition of ConA-induced cell proliferation pretreated with Concanavalin A for 24 hrs followed by compound addition and measured after 48 hrs by CCK-8 assay; type: functional, cell-based
T-cell [2] = test: Immunosuppressive activity in BALB/c mouse T-lymphocytes assessed as reduction in ConA-induced CD4 subpopulation by measuring CD3negativeCD4negative cells at 10 uM pretreated with Concanavalin A for 24 hrs followed by compound addition and measured after 48 hrs by flow cytometry analysis (reference value: 0%); type: functional; parameters: scale not given: the % may be the effect or the level left
T-cell [3] = test: Immunosuppressive activity in BALB/c mouse T-lymphocytes assessed as reduction in ConA-induced CD8 subpopulation by measuring CD3positiveCD8positive cells at 10 uM pretreated with Concanavalin A for 24 hrs followed by compound addition and measured after 48 hrs by flow cytometry analysis (reference value: 29.1%); type: functional; parameters: scale not given: the % may be the effect or the level left
T-cell [4] = test: Immunosuppressive activity in BALB/c mouse T-lymphocytes assessed as reduction in ConA-induced CD8 subpopulation by measuring CD3negativeCD8negative cells at 5 uM pretreated with Concanavalin A for 24 hrs followed by compound addition and measured after 48 hrs by flow cytometry analysis (reference value: 0%); type: functional; parameters: scale not given: the % may be the effect or the level left
T-cell [5] = test: Immunosuppressive activity in BALB/c mouse T-lymphocytes assessed as reduction in ConA-induced CD4 subpopulation by measuring CD3positiveCD4negative cells at 10 uM pretreated with Concanavalin A for 24 hrs followed by compound addition and measured after 48 hrs by flow cytometry analysis (reference value: 12.2%); type: functional; parameters: scale not given: the % may be the effect or the level left
T-cell [6] = test: Immunosuppressive activity in BALB/c mouse T-lymphocytes assessed as reduction in ConA-induced CD4 subpopulation by measuring CD3positiveCD4negative cells at 5 uM pretreated with Concanavalin A for 24 hrs followed by compound addition and measured after 48 hrs by flow cytometry analysis (reference value: 12.2%); type: functional; parameters: scale not given: the % may be the effect or the level left
T-cell [7] = test: Immunosuppressive activity in BALB/c mouse T-lymphocytes assessed as reduction in ConA-induced CD4 subpopulation by measuring CD3positiveCD4positive cells at 5 uM pretreated with Concanavalin A for 24 hrs followed by compound addition and measured after 48 hrs by flow cytometry analysis (reference value: 87.8%); type: functional; parameters: scale not given: the % may be the effect or the level left
T-cell [8] = test: Immunosuppressive activity in ConA-induced BALB/c mouse T-lymphocytes assessed as Treg cell subsets by measuring CD25positiveFOXP3negative cells at 10 uM pretreated with Concanavalin A for 24 hrs followed by compound addition and measured after 48 hrs by flow cytometry analysis (reference value: 66.9%); type: functional
T-cell [9] = test: Immunosuppressive activity in BALB/c mouse T-lymphocytes assessed as reduction in ConA-induced CD8 subpopulation by measuring CD3positiveCD8negative cells at 5 uM pretreated with Concanavalin A for 24 hrs followed by compound addition and measured after 48 hrs by flow cytometry analysis (reference value: 70.9%); type: functional; parameters: scale not given: the % may be the effect or the level left
T-cell [10] = test: Immunosuppressive activity in BALB/c mouse T-lymphocytes assessed as reduction in ConA-induced CD8 subpopulation by measuring CD3positiveCD8negative cells at 10 uM pretreated with Concanavalin A for 24 hrs followed by compound addition and measured after 48 hrs by flow cytometry analysis (reference value: 70.9%); type: functional; parameters: scale not given: the % may be the effect or the level left
T-cell [11] = test: Immunosuppressive activity in ConA-induced BALB/c mouse T-lymphocytes assessed as Treg cell subsets by measuring CD25positiveFOXP3negative cells at 5 uM pretreated with Concanavalin A for 24 hrs followed by compound addition and measured after 48 hrs by flow cytometry analysis (reference value: 66.9%); type: functional
T-cell [12] = test: Immunosuppressive activity in ConA-induced BALB/c mouse T-lymphocytes assessed as Treg cell subsets by measuring CD25negativeFOXP3negative cells at 10 uM pretreated with Concanavalin A for 24 hrs followed by compound addition and measured after 48 hrs by flow cytometry analysis (reference value: 27.2%); type: functional
T-cell [13] = test: Immunosuppressive activity in BALB/c mouse T-lymphocytes assessed as reduction in ConA-induced CD8 subpopulation by measuring CD3negativeCD8positive cells at 10 uM pretreated with Concanavalin A for 24 hrs followed by compound addition and measured after 48 hrs by flow cytometry analysis (reference value: 0%); type: functional; parameters: scale not given: the % may be the effect or the level left
T-cell [14] = test: Immunosuppressive activity in BALB/c mouse T-lymphocytes assessed as reduction in ConA-induced CD8 subpopulation by measuring CD3negativeCD8positive cells at 5 uM pretreated with Concanavalin A for 24 hrs followed by compound addition and measured after 48 hrs by flow cytometry analysis (reference value: 0%); type: functional; parameters: scale not given: the % may be the effect or the level left
T-cell [15] = test: Immunosuppressive activity in ConA-induced BALB/c mouse T-lymphocytes assessed as Treg cell subsets by measuring CD25negativeFOXP3positive cells at 5 uM pretreated with Concanavalin A for 24 hrs followed by compound addition and measured after 48 hrs by flow cytometry analysis (reference value: 0.2%); type: functional
T-cell [16] = test: Immunosuppressive activity in BALB/c mouse T-lymphocytes assessed as reduction in ConA-induced CD4 subpopulation by measuring CD3positiveCD4positive cells at 10 uM pretreated with Concanavalin A for 24 hrs followed by compound addition and measured after 48 hrs by flow cytometry analysis (reference value: 87.8%); type: functional; parameters: scale not given: the % may be the effect or the level left
T-cell [17] = test: Immunosuppressive activity in ConA-induced BALB/c mouse T-lymphocytes assessed as Treg cell subsets by measuring CD25negativeFOXP3negative cells at 5 uM pretreated with Concanavalin A for 24 hrs followed by compound addition and measured after 48 hrs by flow cytometry analysis (reference value: 27.2%); type: functional
T-cell [18] = test: Immunosuppressive activity in BALB/c mouse T-lymphocytes assessed as reduction in ConA-induced CD4 subpopulation by measuring CD3negativeCD4positive cells at 10 uM pretreated with Concanavalin A for 24 hrs followed by compound addition and measured after 48 hrs by flow cytometry analysis (reference value: 0%); type: functional; parameters: scale not given: the % may be the effect or the level left
T-cell [19] = test: Immunosuppressive activity in BALB/c mouse T-lymphocytes assessed as reduction in ConA-induced CD4 subpopulation by measuring CD3negativeCD4positive cells at 5 uM pretreated with Concanavalin A for 24 hrs followed by compound addition and measured after 48 hrs by flow cytometry analysis (reference value: 0%); type: functional; parameters: scale not given: the % may be the effect or the level left
T-cell [20] = test: Immunosuppressive activity in BALB/c mouse T-lymphocytes assessed as reduction in ConA-induced CD8 subpopulation by measuring CD3negativeCD8negative cells at 10 uM pretreated with Concanavalin A for 24 hrs followed by compound addition and measured after 48 hrs by flow cytometry analysis (reference value: 0%); type: functional; parameters: scale not given: the % may be the effect or the level left
T-cell [21] = test: Immunosuppressive activity in BALB/c mouse T-lymphocytes assessed as reduction in ConA-induced CD8 subpopulation by measuring CD3positiveCD8positive cells at 5 uM pretreated with Concanavalin A for 24 hrs followed by compound addition and measured after 48 hrs by flow cytometry analysis (reference value: 29.1%); type: functional; parameters: scale not given: the % may be the effect or the level left
T-cell [22] = test: Immunosuppressive activity in ConA-induced BALB/c mouse T-lymphocytes assessed as Treg cell subsets by measuring CD25negativeFOXP3positive cells at 10 uM pretreated with Concanavalin A for 24 hrs followed by compound addition and measured after 48 hrs by flow cytometry analysis (reference value: 0.2%); type: functional
T-cell [23] = test: Immunosuppressive activity in ConA-induced BALB/c mouse T-lymphocytes assessed as Treg cell subsets by measuring CD25positiveFOXP3positive cells at 10 uM pretreated with Concanavalin A for 24 hrs followed by compound addition and measured after 48 hrs by flow cytometry analysis (reference value: 5.7%); type: functional
T-cell [24] = test: Immunosuppressive activity in BALB/c mouse T-lymphocytes assessed as reduction in ConA-induced CD4 subpopulation by measuring CD3negativeCD4negative cells at 5 uM pretreated with Concanavalin A for 24 hrs followed by compound addition and measured after 48 hrs by flow cytometry analysis (reference value: 0%); type: functional; parameters: scale not given: the % may be the effect or the level left
T-cell [25] = test: Immunosuppressive activity in ConA-induced BALB/c mouse T-lymphocytes assessed as Treg cell subsets by measuring CD25positiveFOXP3positive cells at 5 uM pretreated with Concanavalin A for 24 hrs followed by compound addition and measured after 48 hrs by flow cytometry analysis (reference value: 5.7%); type: functional

Cc1cc(O)c2c3c1C(=O)[C@@H]1c4c(c(O)c5c6c(c(O)cc(C)c46)C(=O)O5)[C@@]3(COC2=O)[C@H]1O
IC50 (B-cell line): > 40 µM
IC50 (T-cell [1]): > 40 µM

COC(=O)C[C@H]1OC(=O)c2c(O)cc(C)c3c4c(c(O)c1c23)[C@]12COC(=O)c3c(O)cc(C)c(c31)C(=O)[C@H]4[C@@H]2O
IC50 (B-cell line): > 40 µM
IC50 (T-cell [1]): > 40 µM

CC1(C)C2CCC1(CS(=O)(=O)O)C(=O)C2 (stereo not given)
IC50 (B-cell line): < 0.04 µM
IC50 (T-cell [1]): < 0.04 µM

COC(=O)C[C@@H]1OC(=O)c2c(O)cc(C)c3c4c(c(O)c1c23)[C@]12COC(=O)c3c(O)cc(C)c(c31)C(=O)[C@H]4[C@@H]2O
IC50 (B-cell line): > 40 µM
IC50 (T-cell [1]): > 40 µM

CC(=O)O[C@H]1[C@@H]2C(=O)c3c(C)cc(O)c4c3[C@@]1(COC4=O)C1=C2c2c(C)cc(O)c3c2[C@@](O)(COC3=O)C1=O
IC50 (B-cell line): > 40 µM
IC50 (T-cell [1]): > 40 µM

COC(=O)C[C@@H]1OC(=O)c2c(O)cc(C)c3c4c(c(O)c1c23)[C@]12COC(=O)c3c(O)cc(C)c(c31)C(=O)[C@H]4[C@@H]2OC(C)=O
IC50 (B-cell line): 8.6 µM
IC50 (T-cell [1]): 12.8 µM

COC(=O)C[C@H]1OC(=O)c2c(O)cc(C)c3c2C1=C(O)C1[C@]24COC(=O)c5c(O)cc(C)c(c52)C(=O)[C@@H]([C@@H]4OC(C)=O)[C@]31OC (stereo not given in full)
IC50 (B-cell line): > 40 µM
IC50 (T-cell [1]): > 40 µM

Cc1cc(O)c2c3c1C(=O)[C@@H]1c4c(c(O)cc5cc(O)cc(C)c45)[C@@]3(COC2=O)[C@H]1O
IC50 (B-cell line): > 40 µM
IC50 (T-cell [1]): > 40 µM

CO[C@@H]1N(CCO)C(=O)c2c(O)cc(C)c3c2[C@]1(O)C(=O)C1=C3[C@H]2C(=O)c3c(C)cc(O)c4c3[C@]1(COC4=O)[C@H]2O
Activity (T-cell [2]): 0%
Activity (T-cell [3]): 38.8%
Activity (T-cell [4]): 0%
Activity (T-cell [5]): 24.1%
Activity (T-cell [6]): 23.4%
Activity (T-cell [7]): 76.6%
Activity (T-cell [8]): 76%
Activity (T-cell [9]): 60.5%
Activity (T-cell [10]): 61.2%
Activity (T-cell [11]): 77.2%
IC50 (B-cell line): 2.1 µM
Activity (T-cell [12]): 21.3%
Activity (T-cell [13]): 0%
Activity (T-cell [14]): 0%
Activity (T-cell [15]): 0.1%
Activity (T-cell [16]): 75.9%
Activity (T-cell [17]): 18.1%
Activity (T-cell [18]): 0%
Activity (T-cell [19]): 0%
Activity (T-cell [20]): 0%
Activity (T-cell [21]): 39.5%
Activity (T-cell [22]): 0.3%
Activity (T-cell [23]): 2.5%
Activity (T-cell [24]): 0%
Activity (T-cell [25]): 4.6%
IC50 (T-cell [1]): 9.3 µM

Cc1cc(O)c2c3c1C(=O)[C@@H]1c4c(c(O)c5c6c(c(O)cc(C)c46)C(=O)OC5)[C@@]3(COC2=O)[C@H]1O
IC50 (B-cell line): > 40 µM
IC50 (T-cell [1]): > 40 µM

Cc1cc(O)c2c3c1C(=O)[C@@H]1C4=C(C(=O)c5cn(CCO)c(=O)c6c(O)cc(C)c4c56)[C@@]3(COC2=O)[C@H]1O
IC50 (B-cell line): > 40 µM
IC50 (T-cell [1]): > 40 µM

CC(=O)O[C@H]1[C@@H]2C(=O)c3c(C)cc(O)c4c3[C@@]1(COC4=O)C1=C2c2c(C)cc(O)c3c2C(C1=O)C1CCCN1C3=O (stereo not given in full)
IC50 (B-cell line): > 40 µM
IC50 (T-cell [1]): > 40 µM

Cc1cc(O)c2c3c1C(=O)[C@@H]1c4c(c(O)c5c6c(c(O)cc(C)c46)C(=O)OC5=O)[C@@]3(COC2=O)[C@H]1O
IC50 (B-cell line): > 40 µM
IC50 (T-cell [1]): > 40 µM

Cc1cc(O)c2c3c1C(=O)[C@@H]1c4c(c5oc(=O)ccc5c5cc(O)cc(C)c45)[C@@]3(COC2=O)[C@H]1O
IC50 (B-cell line): > 40 µM
IC50 (T-cell [1]): > 40 µM

Cc1cc(O)c2c3c1C1=C(C(=O)C3C3CCCN3C2=O)[C@]23COC(=O)c4c(O)cc(C)c(c42)C(=O)[C@H]1[C@@H]3O (stereo not given in full)
IC50 (B-cell line): > 40 µM
IC50 (T-cell [1]): > 40 µM

CC(=O)O[C@H]1[C@@H]2C(=O)c3c(C)cc(O)c4c3[C@@]1(COC4=O)c1c(O)c3c4c(c(O)cc(C)c4c12)C(=O)O3
IC50 (B-cell line): > 40 µM
IC50 (T-cell [1]): > 40 µM

COC(=O)C[C@H]1OC(=O)c2c(O)cc(C)c3c4c(c(O)c1c23)[C@]12COC(=O)c3c(O)cc(C)c(c31)C(=O)[C@H]4[C@@H]2OC(C)=O
IC50 (B-cell line): > 40 µM
IC50 (T-cell [1]): > 40 µM

CC(=O)O[C@H]1[C@@H]2C(=O)c3c(C)cc(O)c4c3[C@@]1(COC4=O)c1c(O)cc3cc(O)cc(C)c3c12
IC50 (B-cell line): > 40 µM
IC50 (T-cell [1]): > 40 µM
